Results on two compounds are retold here after paper PMC9313812, “The Pseudo‐Natural Product Rhonin Targets RHOGDI” (Angewandte Chemie (International Ed. in English), 2022).

Data set [1] has as its target T1, RHOGDI1-mediated extraction of RHOA (Homo sapiens, UniProt P52565).
T1 construct: made in house; host or cells: RHOGDI1: E. coli; prenylated RHOA: insect cells (TNAO38)
Put plainly: Liposome sedimentation assay: displacement of prenylated GDP-bound RHOA by GST-RHOGDI1. It is filed as biochemical. The settings on record: 50 μM compound. As for the experimental part:
Supplementary Figure S4. Compound 7a impairs RHOGDI1 function. (a) Assay setup for the liposome sedimentation assay. (b) Displacement of prenylated GDP‐bound RAC1 from synthetic liposomes by GST-RHOGDI1 in the presence or absence of 50 μM 7a was measured using liposome floatation assay. Data is representative of three independent experiments.
Liposome-containing phase represented by fluorescent colour as result of 5% fluorescent NDB-PE was analysed by Western blotting. Data are representatives of three independent […]
experiments. (c-d) Displacement of prenylated
GDP‐bound RHO GTPases (RHOA and CDC42) from synthetic liposomes by GST‐RHOGDI1 […]
liposome sedimentation assay. Data is representative of three independent experiments. P: […]
Liposome sedimentation assay
Liposomes were prepared by self-assembly of the lipids (500 μg) containing 20% (w/w) phosphatidylethanolamine, 45% (w/w) phosphatidylcholine, 20% (w/w) phosphatidylserine, 10% (w/w) cholesterol, and 5% (w/w) phosphatidylinositol 4,5-bisphosphate. […] The resulting pellet and supernatant fractions were collected and analyzed by immunoblotting. […]
The resulting samples were centrifuged at 140000 x g for 1 h at 4 °C. The upper liposome‐ containing phase (detected by fluorescent NDB‐PE) was collected and analyzed by […]

Data set [2] in a line: Parallel artificial membrane permeability assay (PAMPA). In kind it is in vitro ADME. The note with it: initial 500 µM in donor, 20 h. As for the experimental part:
500 µM final compound concentrations. The kinetic solubility of the compound solutions in HEPES buffer pH 7.4 were then compared to a solution in the organic solvent (ACN) after vigorous shaking on an orbital shaker at room temperature for 90 min. Therefore, the spectrum 250 -500 nm was recorded using the Spectramax plate reader. Precipitated material was removed by filtration prior to analysis. Each sample was tested in triplicate.
Aqueous solubility was also determined using a turbidimetric assay. DMSO stock solutions were diluted in DMSO to produce a range of concentrations. These were then added to PBS buffer pH7.4 (final test compound concentrations: 1 µM, 3 µM, 10 µM, 30 µM, 100 µM, 1% final DMSO concentration, 7 replicates per concentration). After 2 h incubation period at room temperature, the absorbance at 620 nm was read for each concentration and each replicate using a Spectramax plate reader.
Permeability through artificial membranes assay (PAMPA)
Permeability through artificial membranes (phospholipid/cholesterol in dodecane) was assessed at an initial compound concentration of 500 µM in the donor compartment. Absorption of the receiver wells was determined by spectrophotometrical measurement using a Spectramax absorbance plate reader after 20 h of incubation. Permeation was calculated by normalization of compound flux across a blank filter. […]
(In PAMPA a lipid-coated filter parts donor from acceptor wells.)

T1 sequence (P52565 whole entry): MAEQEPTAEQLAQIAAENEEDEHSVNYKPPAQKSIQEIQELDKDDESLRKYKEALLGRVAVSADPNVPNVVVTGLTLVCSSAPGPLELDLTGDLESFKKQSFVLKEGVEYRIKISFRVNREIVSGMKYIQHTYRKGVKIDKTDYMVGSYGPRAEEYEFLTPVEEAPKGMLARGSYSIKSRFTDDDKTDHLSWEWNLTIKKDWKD

Regarding `COC(=O)C1(C(CC(=O)c2ccccc2)c2ccccc2)N=C(c2ccc(Br)cc2)C2C(=O)N(C)C(=O)C21` (centres unmarked) [7a], the “Inhibition of RHOGDI1-mediated extraction of RHOA (in words)” value in data set [1] was “inhibited”.
As to `COC(=O)C1(C(CC(=O)c2cccnc2)c2ccccc2)N=C(c2ccc(Br)cc2)C2C(=O)N(C)C(=O)C21` (centres unmarked) [7l], in data set [2], the “permeability, flux in PAMPA” value is on record as 41.1%.
